Experimental data: patent US20180110770A1, “FERROPTOSIS AND GLUTAMINOLYSIS INHIBITORS AND METHODS OF TREATMENT” (MEMORIAL SLOAN-KETTERING CANCER CENTER, priority 2015, published 2018)
Peptide text beside a SMILES is read from it. * marks the point of attachment. Cbz = O=C(OCc1ccccc1)*; CH2F = FC*

Tests used:
MEFs [1] = assay: Serum-dependent necrosis (serum-induced cell death) upon amino acid or cystine starvation; assay type: cell-based, mouse; details: 12 hrs, NAC 0.2 mM, Trolox 0.2 mM; for inhibition of serum-dependent necrosis (cell viability / cell death): total amino acid starvation in the presence of FBS, GPNA 5 mM, 968 20 μM, AOA 0.5 mM, BPTES 10 μM, DFO 80 μM, CPX 10 μM, BIP 100 μM, cysteine/cystine 0.2 mM, U0126 and PD0325901 10 μM; for inhibition of serum-dependent cell death triggered by cystine starvation: cystine starvation in the presence of serum
Protocol: (§1) To induce cell death, 80%-confluent cells were washed with PBS twice, and then cultured in amino acid-free medium, with specific factors added as indicated in individual experiments. Cell death was analyzed by propidium iodide (PI) staining coupled with microscopy or flow cytometry. Alternatively, cell viability was determined using the CellTiter-Glo luminescent Cell Viability Assay (Promega). In assays using WT MEFs, viability was calculated by normalizing ATP levels to cells treated with amino acid-starvation in the presence of 10% (v/v) diFBS, while in assays using bax/bak-DKO MEFs, ATP levels were normalized to cells treated with amino acid and FBS double starvation.

MEFs [2] = assay: Erastin-induced ferroptosis; assay type: cell-based, mouse; details: erastin 1 μM, 12 hrs, DFO 80 μM, CPX 10 μM, 968 20 μM, AOA 0.5 mM, U0126 and PD0325901 10 μM
[3] = 2,2-Diphenyl-1-picrylhydrazyl assay for antioxidant activity; details: compound 50 μM, DPPH 50 μM in methanol, 1 hr, room temperature, absorbance at 517 nm
Protocol: The experiment was performed as described previously (Blois, 1958; Dixon et al., 2012). 2,2-Diphenyl-1-picrylhydrazyl (DPPH) (Sigma Cat#D9132) was dissolved in methanol to a final concentration of 50 μM. The tested compounds were added to 1 ml of DPPH solution with a final concentration of 50 μM. Samples were mixed well and incubated at room temperature for 1 hr. The absorbance at 517 nm (indicating the concentration of non-reduced DPPH) was measured using methanol as control.

MEFs [4] = assay: Death-inducing activity of serum small molecules under amino acid starvation with diFBS; assay type: cell-based, mouse; details: 12 hrs, α-KG 4 mM also in the presence of AOA 0.5 mM, glucose with diFBS or transferrin
Protocol: as §1

bax/bak-DKO MEFs = assay: Death-inducing activity of transferrin and L-Gln under amino acid starvation; assay type: cell-based, mouse; details: 12 hrs
Protocol: as §1

[5] = system: hearts isolated from wild-type mice; assay: Ischemia-reperfusion (I/R) analysis using isolated hearts (ex vivo heart model); assay type: in vivo; details: ex vivo mouse heart, DFO 80 μM; for left ventricular developed pressure (LVDP) recovery at the end of reperfusion / myocardial infarct size (TTC staining): 30 min global ischemia, 60 min reperfusion; for left ventricular developed pressure (LVDP) recovery at the end of reperfusion: 968 25 μM in perfusate, vehicle 43.20%±1.66%; for myocardial infarct size (TTC staining): vehicle 30.82%±0.57%
Protocol: Male C57BL/6J mice weighing 25-30 g at age 12-14 weeks were used in all experiments and maintained in a temperature-controlled room with alternating 12:12-h light-dark cycles. Experiments were performed using an isovolumic isolated heart preparation as published and modified for the use in mice hearts ([…] et al., 2009; Hwang et al., 2004). Hearts from 12-14 weeks aged wild-type mice were isolated, and retrograde perfused at 37° C. in a non-recirculating mode through the aorta at a rate of 2.5 ml/min. Hearts were perfused with modified Krebs-Henseleit (KH) buffer (118 mM NaCl, 4.7 mM KCl, 2.5 mM CaCl2, 1.2 mM MgCl2, 25 mM NaHCO3, 5 mM glucose, 0.4 mM palmitate, 0.2 mM glutamine, 10 μg/ml human recombinant transferrin, 0.4 mM BSA, and 70 mU/1 insulin). Left ventricular developed pressure (LVDP) was measured using a latex balloon in the left ventricle. LVDP and coronary perfusion pressure were monitored continuously on a four-channel Gould recorder. Hearts were perfused either with KH buffer containing vehicle (DMSO) or the Compounds throughout the FR protocol. After an equilibration period of 30 min, global ischemia was performed for 30 min followed by 60 minutes of reperfusion. Cardiac injury due to I/R stress was assessed by measuring LDH release in the perfusates that were collected during 60 min of reperfusion. […] After 60 min of reperfusion, the heart is perfused with Evans blue in-situ and then removed. Hearts were sliced into cross-sections at approximately 1-mm intervals. The sections were embedded in the TTC solution at 37° C. for 10 min, and area of infarct as a percent of the whole heart was quantified as described. Functional recovery of LVDP was expressed by comparing to the initial LVDP before ischemia. All animal experiments were approved by the Institutional Animal Care and Use Committees of New York University School of Medicine and conformed to the guidelines outlined in the National Institutes of Health Guide for Care and Use of Laboratory Animals (NIH Pub. No. 85-23, 1996).

caspase-3 activation = assay: Caspase-3 activation induced by UV light (Western blot); assay type: cell-based
MEK1/2 = details: MEFs, PD0325901 10 μM, U0126 10 μM, Western blotting
TNF-α induced apoptosis = assay: TNF-α induced apoptosis; assay type: cell-based; details: TNF-α 50 ng/ml + SMAC mimetic 0.5 μM; AOA 0.5 mM

c1ccc(-c2ccccn2)nc1 [BIP, 2,2-bipyridyl]
inhibition of serum-dependent necrosis (cell viability / cell death) (MEFs [1]): blocked

N[C@@H](CCC(=O)N[C@@H](CS)C(=O)NCC(=O)O)C(=O)O [GSH, glutathione]
inhibition of serum-dependent cell death triggered by cystine starvation (MEFs [1]): effectively blocked | inhibition of serum-dependent necrosis (cell viability / cell death) (MEFs [1]): effectively blocked

O=C(Cc1ccccc1)Nc1nnc(CCSCCc2nnc(NC(=O)Cc3ccccc3)s2)s1 [BETPS, Bis-2-(5-phenylacetamido-1,3 ,4-thiadiazol-2-yl)ethyl sulfide]
inhibition of serum-dependent necrosis (cell viability / cell death) (MEFs [1]): failed to block

Cc1c(C)c2c(c(C)c1O)CCC(C)(C(=O)O)O2 (stereo not drawn) [Trolox, 6-hydroxy-2,5,7,8-tetramethylchroman-2-carboxylic acid]
inhibition of serum-dependent cell death triggered by cystine starvation (MEFs [1]): effectively blocked | inhibition of serum-dependent necrosis (cell viability / cell death) (MEFs [1]): effectively blocked

N[C@@H](CCC(=O)Nc1ccc([N+](=O)[O-])cc1)C(=O)O [GPNA, L-g-glutamyl-p-nitroanilide]
inhibition of serum-dependent necrosis (cell viability / cell death) (MEFs [1]): markedly blocked

Cc1cc(C2CCCCC2)n(O)c(=O)c1 [CPX, ciclopirox olamine]
inhibition of serum-dependent necrosis (cell viability / cell death) (MEFs [1]): blocked | inhibition of erastin-induced ferroptosis (PI staining, flow cytometry) (MEFs [2]): inhibited

O=C(NOC[C@H](O)CO)c1ccc(F)c(F)c1Nc1ccc(I)cc1F [PD0325901]
antioxidant activity (reduction of DPPH) [3]: showed no anti-oxidant function

COC(=O)CCC(=O)C(=O)OC [α-KG, Dimethyl-α-Ketoglutarate]
induction of cell death in the presence of diFBS (MEFs [4]): can induce potent cell death

CCOC(=O)c1ccc(NC2CCCCC2)c(N)c1 [Fer-1]
inhibition of serum-dependent cell death triggered by cystine starvation (MEFs [1]): can block | inhibition of serum-dependent necrosis (cell viability / cell death) (MEFs [1]): can block

recombinant human holo-transferrin: recombinant human holo-transferrin expressed in rice
induction of cell death in the presence of smFBS (bax/bak-DKO MEFs; with smFBS): could induce cell death in a dose-dependent manner

L-alanine-L-glutamine [A-Q]
induction of cell death in the presence of diFBS (MEFs [4]): able to induce cell death

CC(=O)N(O)CCCCCNC(=O)CCC(=O)N(O)CCCCCNC(=O)CCC(=O)N(O)CCCCCN [DFO, Deferoxamine]
left ventricular developed pressure (LVDP) recovery at the end of reperfusion [5]: 64.75%±4.09% | myocardial infarct size (TTC staining) ([5]; 968 25 μM): 22.60%±0.97%

COC(=O)C[C@H](NC(=O)[C@H](C)NC(=O)[C@@H](NC(=O)OCc1ccccc1)C(C)C)C(=O)CF [zVAD-FMK] (Cbz-Val-Ala-Asp(OMe)-CH2F)
inhibition of serum-dependent necrosis (cell viability / cell death) (MEFs [1]): failed to block | block of caspase-3 activation induced by UV light (caspase-3 activation): can block

N[C@@H](CS)C(=O)O [cysteine]
inhibition of serum-dependent necrosis (cell viability / cell death) (MEFs [1]): rescued cells from necrosis

N[C@@H](CSSC[C@H](N)C(=O)O)C(=O)O [cystine]
inhibition of serum-dependent necrosis (cell viability / cell death) (MEFs [1]): rescued cells from necrosis

transferrin: iron carrier protein in serum
cell death on addition of transferrin to L-Gln (bax/bak-DKO MEFs; with L-Gln 0.1 mM): further enhanced cell death

CN(C)c1ccc(C2Nc3ccc4ccccc4c3C3=C2C(=O)CC(C)(C)C3)cc1Br (stereo not drawn) [Compound 968]
inhibition of serum-dependent necrosis (cell viability / cell death) (MEFs [1]): completely inhibited | inhibition of erastin-induced ferroptosis (PI staining, flow cytometry) (MEFs [2]): can also inhibit | antioxidant activity (reduction of DPPH) [3]: showed no anti-oxidant function | left ventricular developed pressure (LVDP) recovery at the end of reperfusion [5]: 75.25%±5.75% | myocardial infarct size (TTC staining) ([5]; 968 25 μM): 17.36%±0.47% | release of lactate dehydrogenase (LDH) during reperfusion ([5]; perfusates collected during 60 min reperfusion, 968 25 μM): significantly inhibited

CC(=O)N[C@@H](CS)C(=O)O [NAC, N-acetylcysteine]
inhibition of serum-dependent cell death triggered by cystine starvation (MEFs [1]): effectively blocked | inhibition of serum-dependent necrosis (cell viability / cell death) (MEFs [1]): effectively blocked

N#CC(=C(/N)Sc1ccccc1N)/C(C#N)=C(\N)Sc1ccccc1N [Compound U0126]
inhibition of serum-dependent necrosis (cell viability / cell death) (MEFs [1]): able to block | inhibition of erastin-induced ferroptosis (PI staining, flow cytometry) (MEFs [2]): able to block | inhibition of MEK1/2 kinase activity (MEK1/2): confirmed the inhibition of MEK1/2 kinase activity | antioxidant activity (reduction of DPPH) [3]: anti-oxidative property

NOCC(=O)O [AOA, amino-oxyacetate]
inhibition of serum-dependent necrosis (cell viability / cell death) (MEFs [1]): could inhibit | inhibition of erastin-induced ferroptosis (PI staining, flow cytometry) (MEFs [2]): can also inhibit | inhibition of TNF-α induced apoptosis (TNF-α induced apoptosis): cannot inhibit

NC(=O)CC[C@H](N)C(=O)O [L-Gln, L-glutamine]
induction of cell death by L-Gln alone (bax/bak-DKO MEFs; L-Gln 0.1 mM alone): induced modest but measurable cell death | induction of cell death in the presence of diFBS (MEFs [4]): induced potent cell death
